Literature values, collected in US20140220152A1, “Compositions and Methods for Detecting, Treating, or Preventing Reductive Stress” (University of Utah Research Foundation, priority 2007, published 2014).

Columns and labels:
[1] = biological target: mammalian glucose-6-phosphate dehydrogenase (G6PDH) (Homo sapiens, UniProt P11413)
[2] = humans taking repeated doses of 250 mg disulfuram daily
[3] = rodents

mammalian glucose-6-phosphate dehydrogenase (G6PDH), sequence (P11413 whole entry): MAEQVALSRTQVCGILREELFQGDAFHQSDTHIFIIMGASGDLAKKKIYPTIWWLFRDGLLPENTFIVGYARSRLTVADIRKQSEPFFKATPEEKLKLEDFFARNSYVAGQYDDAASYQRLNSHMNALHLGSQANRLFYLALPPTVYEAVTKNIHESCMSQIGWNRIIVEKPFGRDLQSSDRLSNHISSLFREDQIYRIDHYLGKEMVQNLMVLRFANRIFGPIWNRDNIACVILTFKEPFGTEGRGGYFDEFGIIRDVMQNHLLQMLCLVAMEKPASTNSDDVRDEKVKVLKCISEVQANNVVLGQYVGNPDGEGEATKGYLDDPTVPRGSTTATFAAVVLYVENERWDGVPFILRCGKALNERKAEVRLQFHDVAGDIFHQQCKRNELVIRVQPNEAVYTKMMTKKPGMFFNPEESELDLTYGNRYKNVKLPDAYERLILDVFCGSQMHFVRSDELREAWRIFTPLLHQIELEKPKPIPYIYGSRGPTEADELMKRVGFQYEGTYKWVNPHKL

Structure (SMILES)	inhibition of mammalian G6PDH [1]	Steady-state serum levels [2]	LD50 [3]
C[C@]12CC[C@H](O)C[C@@H]1CC[C@@H]1[C@@H]2CC[C@]2(C)C(=O)[C@H](Br)C[C@@H]12 [16α-bromoepiandrosterone]	more potent inhibitor of mammalian G6PDH than DHEA		
C[C@]12CC[C@H](O)CC1=CC[C@@H]1[C@@H]2CC[C@]2(C)C(=O)CC[C@@H]12 [DHEA, Dehydroepiandrosterone]	potent non-competitive inhibitor		
CCN(CC)C(=S)SSC(=S)N(CC)CC [Disulfuram, tetraalkylthiuram disulfide]		approximately 1.3 μM	8600 mg/kg
